Measurements reported in patent US20010010822A1, “LIPID COMPLEXES AND LIPOSOMES OF HIGHLY INSOLUBLE PLATINUM COMPLEXES” (priority 1999, published 2001).

Test system: PLATINUM RESISTANT P388 CELL LINE
Test: Anti-tumor activity of DACH-platinum compounds against platinum resistant P388 cell line
Assay type: in vivo
Details: initial tumor burden 1.0 × 10^6

SMILES: N.N.[Cl][Pt][Cl] [Cisplatin]
- % Increase in Length of Survival (dose 3.5 mg/kg): +3%
- % T/C (dose 3.5 mg/kg): 103.8%
- Log10 Change in Tumor Burden (dose 3.5 mg/kg): +1.7
- Median Day of Death (dose 3.5 mg/kg): 13.5
- % Increase in Length of Survival (dose 5.3 mg/kg): +15%
- % T/C (dose 5.3 mg/kg): 115.4%
- Log10 Change in Tumor Burden (dose 5.3 mg/kg): +1.5
- Median Day of Death (dose 5.3 mg/kg): 15.0
- % Increase in Length of Survival (dose 8.0 mg/kg): +23%
- % T/C (dose 8.0 mg/kg): 123.1%
- Log10 Change in Tumor Burden (dose 8.0 mg/kg): +1.5
- Median Day of Death (dose 8.0 mg/kg): 16.0
